In ChEMBL document CHEMBL5678803, “Selective blockade of TRPA1 channel attenuates pathological pain without altering noxious cold sensation or body temperature regulation” (Pain, 2011):
The source made the active and inactive calls. The rule behind the calls is not given here.

What was measured:
[1] = molecular target: Melatonin receptor type 1A (Homo sapiens) (UniProt P48039); test: Inhibition of MT1 receptor (unknown origin) at 10 micromol/L by radioligand binding assay; conditions: dose 10.0 µmol/L
Melatonin receptor type 1A (Homo sapiens), sequence (P48039 whole entry): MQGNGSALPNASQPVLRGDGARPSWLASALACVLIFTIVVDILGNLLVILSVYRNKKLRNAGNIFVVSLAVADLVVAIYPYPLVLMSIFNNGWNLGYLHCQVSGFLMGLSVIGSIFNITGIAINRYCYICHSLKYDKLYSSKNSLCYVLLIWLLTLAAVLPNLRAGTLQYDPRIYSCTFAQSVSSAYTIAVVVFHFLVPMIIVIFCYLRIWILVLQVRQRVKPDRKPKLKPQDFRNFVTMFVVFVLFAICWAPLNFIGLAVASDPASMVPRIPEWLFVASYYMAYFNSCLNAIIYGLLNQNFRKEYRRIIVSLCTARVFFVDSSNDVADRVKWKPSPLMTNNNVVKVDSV

[2] = Toxicity in Sprague-Dawley rat assessed as effect on body temperature at 20.7 to 62.1 mg/kg, po measured after 480 mins by radiotelemetric analysis; assay type: organism-based; conditions: in vivo, 8 h, dose 20.7-62.1 mg/kg
[3] = molecular target: T1, Transient receptor potential cation channel subfamily V member 2 (Rattus norvegicus) (UniProt Q9WUD2); test: Antagonist activity at rat TRPV2 expressed in HEK293F cells assessed as inhibition of 2APB-induced TRPV2 channel activation by FLIPR-based Ca2+ assay relative to control; assay type: cell-based; conditions: concentration not given here
T1 sequence (whole entry): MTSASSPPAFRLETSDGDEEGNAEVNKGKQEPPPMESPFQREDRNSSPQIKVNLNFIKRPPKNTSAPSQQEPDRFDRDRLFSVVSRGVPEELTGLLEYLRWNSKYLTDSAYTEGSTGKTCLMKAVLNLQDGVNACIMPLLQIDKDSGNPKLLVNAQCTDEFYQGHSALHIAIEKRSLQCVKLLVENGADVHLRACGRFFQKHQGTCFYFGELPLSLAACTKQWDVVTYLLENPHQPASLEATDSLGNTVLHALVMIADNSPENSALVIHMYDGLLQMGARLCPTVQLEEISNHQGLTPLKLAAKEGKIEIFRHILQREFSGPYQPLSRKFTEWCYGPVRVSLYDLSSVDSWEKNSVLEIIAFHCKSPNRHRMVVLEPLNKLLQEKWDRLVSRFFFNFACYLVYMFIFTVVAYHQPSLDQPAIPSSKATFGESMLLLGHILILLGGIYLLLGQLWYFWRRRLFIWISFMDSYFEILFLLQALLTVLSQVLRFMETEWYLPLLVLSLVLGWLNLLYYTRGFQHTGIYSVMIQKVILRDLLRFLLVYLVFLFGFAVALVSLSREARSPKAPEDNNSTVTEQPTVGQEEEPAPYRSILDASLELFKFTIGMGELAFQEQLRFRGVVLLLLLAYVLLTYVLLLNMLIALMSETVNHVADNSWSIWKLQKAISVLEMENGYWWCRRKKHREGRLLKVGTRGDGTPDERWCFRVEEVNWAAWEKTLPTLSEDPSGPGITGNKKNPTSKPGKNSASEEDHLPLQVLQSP

[4] = molecular target: T2, Transient receptor potential cation channel subfamily V member 3 (Homo sapiens) (UniProt Q8NET8); test: Activation of endogenous TRPV3 in human epithelial cells upto 100 micromol/L; assay type: cell-based; conditions: Epithelial cell, dose <= 100.0 µmol/L
T2 sequence (whole entry): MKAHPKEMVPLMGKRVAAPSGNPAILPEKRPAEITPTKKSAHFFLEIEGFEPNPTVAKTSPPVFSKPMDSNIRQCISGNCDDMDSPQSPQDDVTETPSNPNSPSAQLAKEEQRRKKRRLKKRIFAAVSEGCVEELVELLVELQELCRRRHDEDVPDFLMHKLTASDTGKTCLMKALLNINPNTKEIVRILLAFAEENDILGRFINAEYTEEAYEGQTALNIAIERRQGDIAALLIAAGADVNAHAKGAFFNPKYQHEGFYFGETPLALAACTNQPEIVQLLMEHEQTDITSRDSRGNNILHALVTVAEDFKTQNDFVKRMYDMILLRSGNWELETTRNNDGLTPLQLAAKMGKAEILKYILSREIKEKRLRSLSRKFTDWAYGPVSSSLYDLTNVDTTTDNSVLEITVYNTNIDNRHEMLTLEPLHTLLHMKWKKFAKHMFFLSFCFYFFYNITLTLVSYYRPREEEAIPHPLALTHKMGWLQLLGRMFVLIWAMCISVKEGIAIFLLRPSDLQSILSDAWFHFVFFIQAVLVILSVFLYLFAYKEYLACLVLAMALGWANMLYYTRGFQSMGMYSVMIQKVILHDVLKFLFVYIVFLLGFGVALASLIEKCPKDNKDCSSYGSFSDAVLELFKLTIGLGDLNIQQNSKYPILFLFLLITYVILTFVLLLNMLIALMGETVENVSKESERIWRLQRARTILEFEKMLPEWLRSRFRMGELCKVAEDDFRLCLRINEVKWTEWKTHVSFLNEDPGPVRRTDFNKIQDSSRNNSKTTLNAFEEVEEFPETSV

CCC(=N\O)/C(C)=C/c1ccc(F)cc1 [A-079]
inhibition [1]: 31% | Activity [2]: Non-Toxic | inhibition [3]: < 20% | Activity [4]: inactive
